Converted amounts (≈) assume the structure as drawn. “Also recorded” adds a separate entry of the source. Like-named read-outs stand apart in the source and are kept apart here.
Experiments:
[1] = system: PbpB in B. subtilis EKB46; experiment: PbpB localization; details: 1x MIC, 30 min (vancomycin) or 1 h
[2] = system: M. tuberculosis (MC26020); experiment: microbe, parasite or virus in culture; assay type: cell-based, Mycobacterium tuberculosis; details: for MIC: Mycobacterium tuberculosis, read-out: MIC M. tuberculosis (MC26020)
[3] = system: S. aureus (ATCC 43300) MRSA; experiment: MIC, microdilution, MRSA ATCC 43300; assay type: cell-based, Staphylococcus aureus; details: norfloxacin-resistant strain
[4] = system: cell wall biosynthesis in B. subtilis DSM402; experiment: Summary of cell wall synthesis experiments; assay type: cell-based, Bacillus subtilis
[5] = system: K. pneumoniae (ATCC 10031); experiment: MIC, K. pneumoniae ATCC 10031; assay type: cell-based, Klebsiella pneumoniae
S. aureus (CCUG1800T) = experiment: MIC, microdilution, S. aureus CCUG1800T; assay type: cell-based, Staphylococcus aureus; details: read-out: MIC S. aureus (CCUG1800T)
E. coli W3110 = experiment: Bacterial cytological profiling (BCP) in E. coli W3110; assay type: cell-based, Escherichia coli; details: for DAPI / phase contrast / FM4-64: 1x MIC, 1 h; for DAPI: DNA condensation; for phase contrast: indicates cell lysis; for FM4-64: membrane stain; for gyrase inhibition / membrane damage: interpretation of BCP in E. coli
E. coli BCB472 = experiment: GlpT localization (inner membrane) in E. coli BCB472; details: 1x MIC, 1 h; GFP-tagged membrane protein
E. faecalis (ATCC 19433) = experiment: MIC, E. faecalis ATCC 19433; assay type: cell-based, Enterococcus faecalis
[6] = system: PonA in B. subtilis TNVS45; experiment: PonA localization; details: 1x MIC, 30 min (vancomycin) or 1 h
B. subtilis DSM402 [7] = experiment: Peptidoglycan integrity assay (acetic acid/methanol fixation); details: 1x MIC; 30 min (cell wall inhibitors) or 60 min
MreB in B. subtilis MW10 = experiment: MreB mobility assay; assay type: cell-based, Bacillus subtilis; details: B. subtilis MW10, 1 h of antibiotic exposure
Procedure: MreB is an actin homologue that forms filamentous structures along the lateral axis of the cell. It moves along the length of the cells in a spiraling pattern thereby driving lateral peptidoglycan synthesis.[36],[37] MreB mobility is sensitive to inhibition of peptidoglycan synthesis and so far, every cell wall synthesis inhibitor we tested abolished MreB movement (see Figure S70 for examples).
Expression of msfGFP-MreB was induced with 0.3% xylose. Pictures were taken after 1 h of antibiotic exposure. Two images of the same field of view were recorded 30 s apart and overlaid in ImageJ to visualize MreB mobility. A perfect overlap (yellow) indicates stalled MreB movement, while distinct red and green foci are indicative of MreB mobility. Scale bar 2 μm.
Fig. S70: MreB motility in B. subtilis MW10 after treatment with different cell wall synthesis inhibitors. Expression of GFP-MreB was induced with 0.3% xylose. Cells were treated with 1x […]
Two images of the same field of view were recorded 30 sec apart and overlaid in ImageJ to visualize MreB mobility. A perfect overlap (yellow) indicates stalled MreB movement while distinct red and green spots are indicative of MreB mobility. Scale bar 2 µm.

B. subtilis DSM402 [8] = experiment: microbe, parasite or virus in culture; details: Bacillus subtilis, DSM402, read-out: concentration (MIC against B. subtilis DSM402)
[9] = system: MraY in B. subtilis TNVS284; experiment: MraY localization; details: 1x MIC, 30 min (vancomycin) or 1 h
B. subtilis DSM402 [10] = experiment: Bacterial cytological profiling (BCP) in B. subtilis DSM402; assay type: cell-based, Bacillus subtilis; details: for DAPI / phase contrast / FM4-64: 1x MIC, 1 h; for DAPI: DNA condensation; for phase contrast: indicates cell lysis; for FM4-64: membrane stain; for gyrase inhibition / membrane damage: interpretation of BCP in B. subtilis
B. subtilis DSM402 [11] = details: for μM (concentration used, 1x MIC): Table 2, cells treated with 1x MIC
[12] = system: MurG in B. subtilis TNVS175; experiment: MurG localization; assay type: cell-based, Bacillus subtilis; details: for protein localization MurG: 1x MIC, 30 min (vancomycin) or 1 h;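 for protein localization MurG: normal MurG forms small membrane spots and peptidoglycan inhibition gives large clusters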
P. aeruginosa (PAO1) = experiment: MIC, microdilution, P. aeruginosa PAO1; assay type: cell-based, Pseudomonas aeruginosa
[13] = system: norfloxacin-resistant clinical isolate of E. coli; experiment: MIC, microdilution, norfloxacin-resistant clinical isolate of E. coli; assay type: cell-based, Escherichia coli; details: read-out: MIC E. coli (norfloxacin-resistant strain)
E. coli [14] = details: for FICC (fractional inhibitory concentration of the test compound): MICCcheckerboard/MICC; for Outcome: checkerboard with mupirocin; for FICM (MICMcheckerboard/MICM): mupirocin alone 64 µg/mL; for FICI (fractional inhibitory concentration index): with mupirocin, FICC+FICM
E. coli (W3110) = experiment: MIC, microdilution, E. coli W3110; assay type: cell-based, Escherichia coli
E. coli [15] = experiment: microbe, parasite or virus in culture; details: Escherichia coli, read-out: MICC (MIC of the test compound alone)
E. coli DNA gyrase = molecular target: T1, E. coli DNA gyrase (Escherichia coli, UniProt P0AES4+P0AES6); experiment: In vitro DNA gyrase cleavage assay; assay type: biochemical
T1 construct: purchased Inspiralis

in vitro = details: human
[16] = Klebsiella pneumoniae, ATCC10031
[17] = Enterococcus faecalis, ATCC19433
[18] = Escherichia coli, Gram-negative strain, average of duplicate experiments, read-out: MIC E. coli (W3110)

T1 sequence (P0AES4 whole entry, one chain of several): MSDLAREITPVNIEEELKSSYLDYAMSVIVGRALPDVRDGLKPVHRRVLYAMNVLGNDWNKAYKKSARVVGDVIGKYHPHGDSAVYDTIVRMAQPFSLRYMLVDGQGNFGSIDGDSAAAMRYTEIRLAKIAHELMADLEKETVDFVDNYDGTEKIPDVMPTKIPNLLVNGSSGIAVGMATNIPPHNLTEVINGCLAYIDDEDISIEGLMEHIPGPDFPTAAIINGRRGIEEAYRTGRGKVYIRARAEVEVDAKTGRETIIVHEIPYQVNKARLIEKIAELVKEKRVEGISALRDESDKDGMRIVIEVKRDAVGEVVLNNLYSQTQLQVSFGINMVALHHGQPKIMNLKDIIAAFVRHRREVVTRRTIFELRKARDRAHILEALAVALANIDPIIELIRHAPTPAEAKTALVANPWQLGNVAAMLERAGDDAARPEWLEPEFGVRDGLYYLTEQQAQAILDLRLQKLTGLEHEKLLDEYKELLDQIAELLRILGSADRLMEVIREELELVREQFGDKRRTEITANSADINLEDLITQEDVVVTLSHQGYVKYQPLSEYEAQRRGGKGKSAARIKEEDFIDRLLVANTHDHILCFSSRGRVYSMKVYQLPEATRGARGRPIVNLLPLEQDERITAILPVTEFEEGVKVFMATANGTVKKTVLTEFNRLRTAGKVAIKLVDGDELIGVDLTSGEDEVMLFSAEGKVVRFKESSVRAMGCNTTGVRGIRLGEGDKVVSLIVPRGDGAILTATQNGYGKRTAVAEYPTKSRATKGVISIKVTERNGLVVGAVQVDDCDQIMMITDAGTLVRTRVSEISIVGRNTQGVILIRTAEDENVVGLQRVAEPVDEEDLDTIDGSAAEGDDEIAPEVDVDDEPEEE

| Structure (SMILES) | protein localization PbpB [1] | MIC [2] [µM] | MIC ([3]; Staphylococcus aureus) [µM] | CWB inhibited? [4] | MIC [5, 16] [µM] | MIC (S. aureus (CCUG1800T); Staphylococcus aureus) [µM] | DAPI (E. coli W3110) | phase contrast (E. coli W3110) | FM4-64 (E. coli W3110) | gyrase inhibition (E. coli W3110) | membrane damage (E. coli W3110) | GlpT (E. coli BCB472) | MIC (E. faecalis (ATCC 19433); [17]) [µM] | protein localization PonA [6] | PG integrity (B. subtilis DSM402 [7]) | MreB mobility (MreB in B. subtilis MW10) | protein localization MraY [9] | DAPI (B. subtilis DSM402 [10]) | phase contrast (B. subtilis DSM402 [10]) | FM4-64 (B. subtilis DSM402 [10]) | further results |
| --- | --- | --- | --- | --- | --- | --- | --- | --- | --- | --- | --- | --- | --- | --- | --- | --- | --- | --- | --- | --- | --- |
| O=C(O)c1cn(C2CC2)c2cc(N3CCNCC3)c(F)cc2c1=O [Cip, ciprofloxacin, reference compound] | smooth | 2.26 (≈ 0.749 µg/mL) | 96.6 (≈ 32 µg/mL) | no | 7.54 (≈ 2.5 µg/mL) | 3.01 (≈ 0.997 µg/mL) | condensed | dark | smooth | yes | no | smooth | 6.03 (≈ 2 µg/mL) | septal | intact | mobile | rough | condensed | dark | few patches | MreB mobility (MreB in B. subtilis MW10; listed as ciprofloxacin): did not affect either MreB mobility or localization; MIC (B. subtilis DSM402 [8]): 3.01 µM (≈ 0.997 µg/mL); gyrase inhibition (B. subtilis DSM402 [10]): yes; membrane damage (B. subtilis DSM402 [10]): possibly |
| CN[C@H](CC(C)C)C(=O)N[C@H]1C(=O)N[C@@H](CC(N)=O)C(=O)N[C@H]2C(=O)N[C@H]3C(=O)N[C@H](C(=O)N[C@H](C(=O)O)c4cc(O)cc(O)c4-c4cc3ccc4O)[C@H](O)c3ccc(c(Cl)c3)Oc3cc2cc(c3O[C@@H]2O[C@H](CO)[C@@H](O)[C@H](O)[C@H]2O[C@H]2C[C@](C)(N)[C@H](O)[C@H](C)O2)Oc2ccc(cc2Cl)[C@H]1O [Van, vancomycin, reference compound] | smooth |  |  | yes |  |  |  |  |  |  |  |  |  | septal | compromised | static with foci | rough |  |  |  | μM (concentration used, 1x MIC) (B. subtilis DSM402 [11]): 0.68 µM; protein localization MurG [12]: patchy/dispersed |
| CCn1cc(C(=O)O)c(=O)c2cc(F)c(N3CCN(C(=O)CN4CCCCC4)CC3)cc21 [7a] |  | 72 (≈ 32 µg/mL) | 576 (≈ 256 µg/mL) |  | 144 (≈ 64 µg/mL) | 8.99 (≈ 4 µg/mL) |  |  |  |  |  |  | 4.49 (≈ 2 µg/mL) |  |  |  |  |  |  |  | MIC (P. aeruginosa (PAO1); Pseudomonas aeruginosa, PAO1): > 1150 µM; MIC ([13]; Escherichia coli): > 1150 µM; FICC (fractional inhibitory concentration of the test compound) (E. coli [14]): 0.252; Outcome (E. coli [14]): additive (>0.5 to ≤4.0 as additive (no interaction)); FICM (MICMcheckerboard/MICM) (E. coli [14]): 0.75; FICI (fractional inhibitory concentration index) (E. coli [14]): 1.002; MIC (E. coli (W3110); [18]): 36 µM (≈ 16 µg/mL); MIC (E. coli [15]): 16 mg/L |
| CCn1cc(C(=O)O)c(=O)c2cc(F)c(N3CCN(C(=O)CN4CCOCC4)CC3)cc21 [7b] |  | 1.67 (≈ 0.746 µg/mL) | 287 (≈ 128 µg/mL) |  | > 1150 | 4.47 (≈ 2 µg/mL) |  |  |  |  |  |  | 8.95 (≈ 4 µg/mL) |  |  |  |  |  |  |  | MIC (P. aeruginosa (PAO1); Pseudomonas aeruginosa, PAO1): 860 µM (≈ 384 µg/mL); MIC ([13]; Escherichia coli): 143 µM (≈ 64 µg/mL); FICC (fractional inhibitory concentration of the test compound) (E. coli [14]): 0.5; Outcome (E. coli [14]): additive (>0.5 to ≤4.0 as additive (no interaction)); FICM (MICMcheckerboard/MICM) (E. coli [14]): 0.0313; FICI (fractional inhibitory concentration index) (E. coli [14]): 0.5313; MIC (E. coli (W3110); [18]): 71.7 µM (≈ 32 µg/mL); MIC (E. coli [15]): 32 mg/L |
| CCn1cc(C(=O)O)c(=O)c2cc(F)c(N3CCNCC3)cc21 [Nor, norfloxacin, reference compound] | smooth | 1.56 (≈ 0.498 µg/mL) | 100 (≈ 32 µg/mL) | no | 9.39 (≈ 3 µg/mL) | 3.13 (≈ 1 µg/mL) | condensed | dark | smooth | yes | no | smooth | 4.69 (≈ 1.5 µg/mL) | septal/patchy | intact | mobile with static foci | rough | condensed | dark | few patches | protein localization PbpB ([1]; listed as norfloxacin): no effect on the other two proteins; MIC (P. aeruginosa (PAO1); Pseudomonas aeruginosa, PAO1): 6.26 µM (≈ 2 µg/mL); inhibition at 10 µM (E. coli DNA gyrase): 73.6%; MIC ([13]; Escherichia coli, norfloxacin-resistant clinical isolate): 50.1 µM (≈ 16 µg/mL); Outcome (E. coli [14]): additive (>0.5 to ≤4.0 as additive (no interaction)); FICM (MICMcheckerboard/MICM) (E. coli [14]): 0.5; protein localization PonA ([6]; listed as norfloxacin): accumulation in distinct foci at the cell membrane; MIC (E. coli (W3110); Escherichia coli, read-out: concentration (MIC against E. coli W3110)): 0.37 µM (≈ 0.118 µg/mL); MIC (E. coli (W3110); [18]): 0.39 µM (≈ 0.125 µg/mL); MreB mobility (MreB in B. subtilis MW10; listed as norfloxacin): the same effect was observed; μM (concentration used, 1x MIC) (B. subtilis DSM402 [11]): 18.11 µM; protein localization MurG [12]: smooth/spotty; protein localization MurG ([12]; listed as norfloxacin): mostly smooth phenotype; larger MurG clusters ([12]; quantification of microscopy images): up to 30%; MIC (E. coli [15]): 0.125 mg/L; IC50 at 24 h (in vitro): 48.2 ± 3.92 µM; MIC (B. subtilis DSM402 [8]): 18.1 µM (≈ 5.78 µg/mL); protein localization MraY ([9]; listed as norfloxacin): no effect on the other two proteins; gyrase inhibition (B. subtilis DSM402 [10]): yes; membrane damage (B. subtilis DSM402 [10]): possibly |
| CCn1cc(C(=O)O)c(=O)c2cc(F)c(N3CCN(CN4C(=O)C(=O)c5cc(F)ccc54)CC3)cc21 [20a] | neither compound affected the localization; also recorded: smooth |  |  | yes ^b |  |  | condensed | dark | smooth | yes | no | smooth |  | neither compound affected the localization; also recorded: septal | came close to the cutoff value; also recorded: intact | much smaller clusters and more clusters per cell; also recorded: mobile with static foci | neither compound affected the localization; also recorded: rough | condensed | dark | patchy | MIC M. tuberculosis (MC26020) [2]: 64.45 µM (≈ 32 µg/mL); MIC [3]: >1031.3 µM; MIC (P. aeruginosa (PAO1)): 17.12 µM (≈ 8.5 µg/mL); MIC [5]: 8.05 µM (≈ 4 µg/mL); MIC ([13]; norfloxacin-resistant clinical isolate): 16.11 µM (≈ 8 µg/mL); MIC (S. aureus (CCUG1800T)): 8.05 µM (≈ 4 µg/mL); MIC (E. faecalis (ATCC 19433)): 3.02 µM (≈ 1.5 µg/mL); MIC (E. coli (W3110); Gram-negative strain, average of duplicate experiments, read-out: MIC E. coli (W3110)): 3.02 µM (≈ 1.5 µg/mL); concentration (MIC against E. coli W3110) (E. coli (W3110); Tab. S11, concentrations represent MIC values): 3.02 µM; concentration (MIC against B. subtilis DSM402) (B. subtilis DSM402 [11]; Tab. S13, concentrations represent MIC values): 16.11 µM; μM (concentration used, 1x MIC) (B. subtilis DSM402 [11]): 16.11 µM; protein localization MurG [12]: distinct MurG clusters all over the cells; also recorded: patchy; gyrase inhibition (B. subtilis DSM402 [10]): yes; membrane damage (B. subtilis DSM402 [10]): yes |

Source: PMC10739246 (ACS Bio & Med Chem Au, 2023)
